The subject of one test is PA-IIL wild type. Particulars: cited from earlier work.
Another test concerns RS-IIL. Details: method as in PMID 16768446. To be noted: cited from earlier work.
A further test concerns the target PA-IIL S22A (Pseudomonas aeruginosa, UniProt Q9HYN5, S23A). Kind of test: ITC binding of monosaccharides to PA-IIL mutant S22A. Particulars: for -TΔS: calculated from ΔG and ΔH.
The target in another test is PA-IIL G24N (Pseudomonas aeruginosa, UniProt Q9HYN5, G25N). Briefly: ITC binding of monosaccharides to PA-IIL mutant G24N. To be noted: for ΔH / -TΔS: ITC at 25°C; for -TΔS: calculated from ΔG and ΔH.
A further test deals with PA-IIL S23A (Pseudomonas aeruginosa, UniProt Q9HYN5, S24A). Briefly: ITC binding of monosaccharides to PA-IIL mutant S23A. To be noted: ITC at 25°C.
The target in test [1] is PA-IIL lectin from Pseudomonas aeruginosa, mutant G24N (Pseudomonas aeruginosa). Briefly: crystal structure; mutants co-crystallised with fucose (hanging drop), soaked 24 h in 10 mM Me-α-D-Man or Me-α-L-Fuc; tetramer in the asymmetric unit.
Test [2] deals with PA-IIL lectin from Pseudomonas aeruginosa, mutant S22A (Pseudomonas aeruginosa). The description is as above.
Test [3] has as its target PA-IIL lectin from Pseudomonas aeruginosa, mutant S23A (Pseudomonas aeruginosa). The description is as above.
The mark [4] stands for this setting: PA-IIL wild type, ITC at 25°C, ref Sabin, C. et al, 2006 [14].
Where [5] appears, read: ITC at 25°C, comparison data, Figure 7 gives ref 18.

Read-outs that look alike come from different tables or passages of the source.

Consider six molecules from paper PMC1903359, “Engineering of PA-IIL lectin from Pseudomonas aeruginosa – Unravelling the role of the specificity loop for sugar preference” (BMC Structural Biology, 2007).

As usually defined, the Kd is the free concentration of one partner at which half of the binding sites on the other are occupied at equilibrium, for simple one-to-one binding. A word on the stoichiometry N: it is a count of units in the complex or per binding partner.

Turning to `CO[C@@H]1O[C@@H](C)[C@@H](O)[C@@H](O)[C@@H]1O` [Me-α-L-Fuc, methyl α-L-fucopyranoside], in the test with PA-IIL wild type (setting [4]), the “-TΔS” value is 4.9 (± 1.0) kJ/mol, the KA is reported as 235 (± 8.0) ×10^4M^-1, the Kd was 430 nM and the ΔG is listed as -36.4 (± 0.1) kJ/mol. For the same molecule, in the test on PA-IIL wild type (setting [4]), the ΔH was -41.3 (± 1.0) kJ/mol. The “entropic contribution TΔS” value in the test with PA-IIL wild type (native (wild type) PA-IIL, sign as TΔS) is -1.17 kcal/mol. In the test with RS-IIL (footnote b: value < 10^4 M^-1), the KA was below 10000 M⁻¹. For the same molecule, the Kd on RS-IIL (footnote b) was above 100000 nM.

In the case of `CO[C@@H]1O[C@@H](CO)[C@@H](O)[C@@H](O)[C@@H]1O` [Me-α-L-Gal, methyl α-L-galactopyranoside], at PA-IIL S22A (S22A, ITC at 25°C), the ΔH is -19.2 (± 0.2) kJ/mol and the “-TΔS” value is -8.3 (± 0.3) kJ/mol. Also, in the test on PA-IIL wild type (setting [4]), the “-TΔS” value is recorded as -2.3 (± 0.7) kJ/mol, the KA was 85.0 (± 5.0) ×10^4M^-1, the Kd is 1170 nM and the ΔH is reported as -31.5 (± 0.6) kJ/mol. Also, on PA-IIL G24N, the ΔH is given as -18.7 (± 0.3) kJ/mol and the “-TΔS” value is listed as -15.0 (± 0.9) kJ/mol. On PA-IIL S23A, the ΔH is recorded as -26.8 (± 1.7) kJ/mol.

Regarding `CO[C@H]1O[C@H](CO)[C@@H](O)[C@H](O)[C@@H]1O` [Me-β-D-Man, methyl α-D-mannopyranoside], on PA-IIL S22A (S22A versus wild type PA-IIL), the “times higher affinity of the mutant compared to the wild type protein” value turned out to be 25 times and the “total difference in free energy, mutant versus wild type” value is -1.91 kcal/mol. Moreover, at PA-IIL S22A (S22A, ITC at 25°C), the “-TΔS” value is on record as -7.4 (± 0.7) kJ/mol. For the same molecule, the “favourable entropic contribution TΔS” value at PA-IIL S22A (S22A, sign as TΔS) came out at 1.77 kcal/mol. Moreover, at PA-IIL G24N, the ΔH is listed as -27.1 (± 0.8) kJ/mol and the “-TΔS” value is recorded as 2.1 (± 0.9) kJ/mol. The “entropic contribution as share of the total Gibbs energy change” value on PA-IIL G24N (unfavourable entropic contribution) is 8%. In addition, in the test with RS-IIL (setting [5]), the “-TΔS” value is recorded as -13.0 (± 0.2) kJ/mol, the KA is 438 (± 2.0) ×10^4M^-1, the Kd was 230 nM and the ΔG is on record as -37.9 (± 0.1) kJ/mol. The ΔH on PA-IIL S23A is on record as -16.7 (± 2.3) kJ/mol. Besides, the KA at PA-IIL S23A (0.1 M Tris-HCl, 30 μM CaCl2, pH 7.5) is reported as 1.91 (± 0.33) ×10^4M^-1. The “-TΔS” value on PA-IIL S23A (calculated from ΔG and ΔH) is given as -7.7 (± 2.7) kJ/mol.

Take “PA-IIL lectin from Pseudomonas aeruginosa, mutant G24N (natural protein)”: in test [1], the stoichiometry N stood at 4.

As for “PA-IIL lectin from Pseudomonas aeruginosa, mutant S22A (natural protein)”, the stoichiometry N in test [2] amounted to 4.

As for “PA-IIL lectin from Pseudomonas aeruginosa, mutant S23A (natural protein)”, the stoichiometry N in test [3] was 4.
